According to patent US20220008359A1, “COMBINATION ANTI-CANCER PRODUCTS AND METHODS” (priority 2020, published 2022):
Marks after values point to notes of the source that are not given here.

Tests used:
[1] = system: H1975 cells (wild type sensitive); assay: In-cell immunostaining of protein expression and phosphorylation, H1975 wild type cells; assay type: cell-based, human; design: HDAC 1 expression / HDAC 2 expression / HDAC 3 expression / HDAC 4 expression / HDAC 5 expression / HDAC 6 expression / HDAC 7 expression / HDAC 8 expression / HDAC 9 expression / HDAC 10 expression / HDAC 11 expression: scale not given here; conditions: 6 h
Experimental: […] Cells were fixed in place 6 hours after treatment and immunostaining of single cells performed to determine the levels of each protein/phosphor-protein (n=3+/−SD). * p<0.05 less than vehicle control; # p<0.05 greater than vehicle control.
(§1) Assessments of protein expression and protein phosphorylation. Multi-channel fluorescence HCS microscopes perform true in-cell western blotting. Three independent cultures derived from three thawed vials of cells of a tumor were sub-cultured into individual 96-well plates. Twenty-four hours after plating, the cells are transfected with a control plasmid or a control siRNA, or with an empty vector plasmid or with plasmids to express various proteins. After another 24 hours, the cells are ready for drug exposure(s). At various time-points after the initiation of drug exposure, cells are fixed in place using paraformaldehyde and using Triton X100 for permeabilization. Standard immunofluorescent blocking procedures are employed, followed by incubation of different wells with a variety of validated primary antibodies and subsequently validated fluorescent-tagged secondary antibodies are added to each well. The microscope determines the background fluorescence in the well and in parallel randomly determines the mean fluorescent intensity of 100 cells per well.

[2] = system: osimertinib-resistant (OR) H1650 cells; assay: In-cell immunostaining of protein expression and phosphorylation, osimertinib-resistant H1650 cells; assay type: cell-based, human; conditions: 6 h, VEH = 100
Experimental: Generation of erlotinib, afatinib and osimertinib-resistant cells. Cells were incubated in vitro with increasing concentrations of vehicle control or erlotinib or osimertinib until after ˜6 weeks the HCC827 and H1975 and H1650 cells grew with similar kinetics to sensitive cells in either erlotinib ([…]) or osimertinib ([…]), respectively. Afatinib-resistant cells were created in vivo by repeated high dosing until tumors disappeared and then regrew, as previously described.
as §1

[3] = 1975 WT, GZ17-6.02 2 mM final curcumin, pemetrexed 500 nM
[4] = 1975 WT, GZ17-6.02 2 mM final curcumin, pemetrexed 500 nM, vehicle 100%

Structure (SMILES): Nc1nc2[nH]cc(CCc3ccc(C(=O)N[C@@H](CCC(=O)O)C(=O)O)cc3)c2c(=O)[nH]1 [PEM, Pemetrexed]
- ERK2 expression [1, 3]: 100
- HDAC 1 expression [1, 3]: 99
- HDAC 2 expression [1, 3]: 93
- HDAC 3 expression [1, 3]: 100
- HDAC 4 expression [1, 3]: 100
- HDAC 5 expression [1, 3]: 98
- HDAC 6 expression [1, 3]: 88
- HDAC 7 expression [1, 3]: 98
- HDAC 8 expression [1, 3]: 101
- HDAC 9 expression [1, 3]: 99
- HDAC 10 expression [1, 3]: 102
- HDAC 11 expression [1, 3]: 101
- ATG5 [1, 4]: 109%
- Beclin1 [1, 4]: 112%
- CD95 [1, 4]: 100%
- CHOP [1, 4]: 107%
- ERBB1 [1, 4]: 101%
- ERBB2 [1, 4]: 101%
- ERBB3 [1, 4]: 99%
- ERBB4 [1, 4]: 100%
- ERK2 [1, 4]: 99%
- FAS-L [1, 4]: 108%
- GRP78 [1, 4]: 112%
- JAK2 [1, 4]: 102%
- P-AKT T308 [1, 4]: 87* %
- P-AMPKα T172 [1, 4]: 105%
- P-ATG13 S318 [1, 4]: 104%
- P-ATM S1980 [1, 4]: 108%
- P-B1 [1, 4]: 88%
- P-B2 [1, 4]: 96%
- P-B3 [1, 4]: 95%
- P-B4 [1, 4]: 100%
- P-ERK1/2 [1, 4]: 95%
- P-JAK2 [1, 4]: 91%
- P-NFκB S536 [1, 4]: 85* %
- P-PDGFRβ [1, 4]: 90%
- P-PERK T980 [1, 4]: 103%
- P-SRC Y416 [1, 4]: 94%
- P-SRC Y527 [1, 4]: 109%
- P-STAT3 Y705 [1, 4]: 88%
- P-STAT5 Y694 [1, 4]: 91%
- P-ULK1 S317 [1, 4]: 105%
- P-ULK1 S757 [1, 4]: 91%
- P-c-MET [1, 4]: 94%
- P-c-MT [1, 4]: 94%
- P-eIF2α S51 [1, 4]: 103%
- P-mTOR S2448 [1, 4]: 96%
- P-mTOR S2481 [1, 4]: 91%
- PDGFRβ [1, 4]: 100%
- PP1 [1, 4]: 109%
- c-KIT [1, 4]: 99%
- c-MET [1, 4]: 100%
- p70 S6K [1, 4]: 101%
- p70 S6K T389 [1, 4]: 99%
- BCL-XL expression ([1]; H1975 WT, VEH = 100): 87*
- ERK2 expression ([1]; H1975 WT, VEH = 100): 100
- FLIP-s expression ([1]; H1975 WT, VEH = 100): 101
- MCL-1 expression ([1]; H1975 WT, VEH = 100): 81*
- BCL-XL expression [2]: 85*
- ERK2 expression [2]: 100
- FLIP-s expression [2]: 93
- MCL-1 expression [2]: 86*
